The values below come from ChEMBL document CHEMBL5291721, “A preclinical secondary pharmacology resource illuminates target-adverse drug reaction associations of marketed drugs” (Nat Commun, 2023).

In one assay the target is Cannabinoid receptor 1 (Homo sapiens, UniProt P21554). It counts as functional, cell-based.
Assay [1] addresses 5-hydroxytryptamine receptor 2A (Homo sapiens, UniProt P28223). The assay is classed as functional, cell-based.
Another assay has as its target Vasopressin V2 receptor (Homo sapiens, UniProt P30518).
In assay [2] the target is T1, Gastrin/cholecystokinin type B receptor (Homo sapiens, UniProt P32239).
T1 sequence (P32239 whole entry): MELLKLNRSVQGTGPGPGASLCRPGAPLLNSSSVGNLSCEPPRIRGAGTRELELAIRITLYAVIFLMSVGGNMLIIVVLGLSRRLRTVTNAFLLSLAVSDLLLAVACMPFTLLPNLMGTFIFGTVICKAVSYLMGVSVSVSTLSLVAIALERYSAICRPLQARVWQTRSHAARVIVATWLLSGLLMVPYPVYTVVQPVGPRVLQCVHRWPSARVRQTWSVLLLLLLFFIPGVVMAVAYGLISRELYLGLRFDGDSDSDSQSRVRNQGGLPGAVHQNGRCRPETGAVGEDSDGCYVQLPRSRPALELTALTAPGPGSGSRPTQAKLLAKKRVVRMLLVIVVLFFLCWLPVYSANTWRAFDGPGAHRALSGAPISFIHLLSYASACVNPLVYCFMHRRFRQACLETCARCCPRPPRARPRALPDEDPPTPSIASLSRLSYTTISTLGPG

The target of assay [3] is Gamma-aminobutyric acid receptor subunit alpha-1 (Rattus norvegicus, UniProt P62813).
Gamma-aminobutyric acid receptor subunit alpha-1, sequence (P62813 whole entry): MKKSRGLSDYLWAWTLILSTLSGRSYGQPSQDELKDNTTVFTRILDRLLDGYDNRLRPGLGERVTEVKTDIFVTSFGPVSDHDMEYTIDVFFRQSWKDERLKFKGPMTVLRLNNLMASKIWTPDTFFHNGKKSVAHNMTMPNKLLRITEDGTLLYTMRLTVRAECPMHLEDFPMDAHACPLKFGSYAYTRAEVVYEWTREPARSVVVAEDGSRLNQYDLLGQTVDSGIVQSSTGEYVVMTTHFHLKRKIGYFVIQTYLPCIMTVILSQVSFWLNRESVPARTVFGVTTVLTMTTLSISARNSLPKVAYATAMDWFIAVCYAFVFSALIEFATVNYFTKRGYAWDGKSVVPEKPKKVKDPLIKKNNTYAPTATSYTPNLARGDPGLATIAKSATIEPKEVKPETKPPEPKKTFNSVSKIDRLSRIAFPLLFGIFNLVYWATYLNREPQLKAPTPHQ
The target of a further assay is T2, Thromboxane A2 receptor (Homo sapiens, UniProt P21731).
T2 sequence (P21731 whole entry): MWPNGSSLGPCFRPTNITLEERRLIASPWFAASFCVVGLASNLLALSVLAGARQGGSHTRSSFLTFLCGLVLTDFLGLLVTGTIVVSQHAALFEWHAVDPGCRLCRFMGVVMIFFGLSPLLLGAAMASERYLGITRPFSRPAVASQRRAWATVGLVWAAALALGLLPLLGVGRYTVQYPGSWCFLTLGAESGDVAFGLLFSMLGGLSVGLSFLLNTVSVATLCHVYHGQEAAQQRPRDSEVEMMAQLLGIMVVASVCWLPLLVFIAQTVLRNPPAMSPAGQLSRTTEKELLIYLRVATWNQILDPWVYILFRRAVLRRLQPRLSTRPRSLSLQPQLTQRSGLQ
It counts as functional, cell-based.

For assay [4], the target named is T3, 5-hydroxytryptamine receptor 1A (Homo sapiens, UniProt P08908).
T3 sequence (P08908 whole entry): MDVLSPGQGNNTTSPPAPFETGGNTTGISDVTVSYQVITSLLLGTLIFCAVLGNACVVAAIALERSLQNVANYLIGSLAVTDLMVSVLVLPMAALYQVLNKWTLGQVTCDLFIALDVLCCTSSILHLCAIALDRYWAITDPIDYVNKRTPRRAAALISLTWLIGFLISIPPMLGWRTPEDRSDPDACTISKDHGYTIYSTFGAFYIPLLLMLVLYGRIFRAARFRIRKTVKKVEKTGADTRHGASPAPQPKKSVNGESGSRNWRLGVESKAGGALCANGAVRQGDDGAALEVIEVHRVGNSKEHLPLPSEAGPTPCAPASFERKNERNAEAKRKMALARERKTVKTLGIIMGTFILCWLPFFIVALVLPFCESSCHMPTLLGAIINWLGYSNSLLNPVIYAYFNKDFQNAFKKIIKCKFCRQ

Assay [5] concerns the target T4, Muscarinic acetylcholine receptor M2 (Homo sapiens, UniProt P08172).
T4 sequence (P08172 whole entry): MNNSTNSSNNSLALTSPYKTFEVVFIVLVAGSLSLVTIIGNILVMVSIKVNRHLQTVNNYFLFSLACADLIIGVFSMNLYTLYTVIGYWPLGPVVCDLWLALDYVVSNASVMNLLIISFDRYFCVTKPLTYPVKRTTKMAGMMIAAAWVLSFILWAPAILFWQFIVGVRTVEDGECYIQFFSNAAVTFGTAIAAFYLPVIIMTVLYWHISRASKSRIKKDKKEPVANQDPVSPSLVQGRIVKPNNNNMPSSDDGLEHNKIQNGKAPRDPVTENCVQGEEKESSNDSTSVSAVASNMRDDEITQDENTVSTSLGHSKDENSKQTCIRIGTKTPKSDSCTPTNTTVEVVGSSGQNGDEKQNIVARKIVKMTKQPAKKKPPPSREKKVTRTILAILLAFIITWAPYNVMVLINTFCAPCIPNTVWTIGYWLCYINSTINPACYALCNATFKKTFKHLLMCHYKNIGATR

Assay [6] has as its target T5, Alpha-2A adrenergic receptor (Homo sapiens, UniProt P08913).
T5 sequence (P08913 whole entry): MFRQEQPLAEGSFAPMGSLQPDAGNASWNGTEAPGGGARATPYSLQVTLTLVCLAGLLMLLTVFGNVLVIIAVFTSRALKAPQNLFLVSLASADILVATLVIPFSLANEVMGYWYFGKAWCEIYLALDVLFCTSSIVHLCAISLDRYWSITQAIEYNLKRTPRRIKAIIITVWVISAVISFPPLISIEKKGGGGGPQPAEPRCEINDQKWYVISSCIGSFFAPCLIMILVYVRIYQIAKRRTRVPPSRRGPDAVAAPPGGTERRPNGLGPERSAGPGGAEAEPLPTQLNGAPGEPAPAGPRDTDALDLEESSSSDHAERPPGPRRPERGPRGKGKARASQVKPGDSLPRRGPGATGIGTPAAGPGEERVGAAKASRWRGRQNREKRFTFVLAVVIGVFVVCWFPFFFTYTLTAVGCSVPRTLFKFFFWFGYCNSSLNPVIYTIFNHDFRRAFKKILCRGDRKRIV

Assay [7] has as its target T6, Alpha-1A adrenergic receptor (Homo sapiens, UniProt P35348).
T6 sequence (P35348 whole entry): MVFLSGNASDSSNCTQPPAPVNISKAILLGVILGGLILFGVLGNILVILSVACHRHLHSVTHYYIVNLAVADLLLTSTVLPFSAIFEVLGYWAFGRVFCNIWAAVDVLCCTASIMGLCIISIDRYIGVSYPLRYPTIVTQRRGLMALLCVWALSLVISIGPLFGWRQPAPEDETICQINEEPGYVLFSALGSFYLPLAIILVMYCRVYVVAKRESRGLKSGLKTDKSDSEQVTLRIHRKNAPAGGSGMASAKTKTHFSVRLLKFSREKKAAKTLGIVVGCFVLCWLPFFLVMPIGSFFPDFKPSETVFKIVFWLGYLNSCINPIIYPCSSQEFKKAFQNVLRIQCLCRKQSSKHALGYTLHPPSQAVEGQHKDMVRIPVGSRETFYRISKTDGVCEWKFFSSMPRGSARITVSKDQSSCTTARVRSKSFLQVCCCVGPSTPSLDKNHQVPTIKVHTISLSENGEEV
It counts as functional, cell-based.
Also: assay procedure not described here.

5-hydroxytryptamine receptor 2A, sequence (P28223 whole entry): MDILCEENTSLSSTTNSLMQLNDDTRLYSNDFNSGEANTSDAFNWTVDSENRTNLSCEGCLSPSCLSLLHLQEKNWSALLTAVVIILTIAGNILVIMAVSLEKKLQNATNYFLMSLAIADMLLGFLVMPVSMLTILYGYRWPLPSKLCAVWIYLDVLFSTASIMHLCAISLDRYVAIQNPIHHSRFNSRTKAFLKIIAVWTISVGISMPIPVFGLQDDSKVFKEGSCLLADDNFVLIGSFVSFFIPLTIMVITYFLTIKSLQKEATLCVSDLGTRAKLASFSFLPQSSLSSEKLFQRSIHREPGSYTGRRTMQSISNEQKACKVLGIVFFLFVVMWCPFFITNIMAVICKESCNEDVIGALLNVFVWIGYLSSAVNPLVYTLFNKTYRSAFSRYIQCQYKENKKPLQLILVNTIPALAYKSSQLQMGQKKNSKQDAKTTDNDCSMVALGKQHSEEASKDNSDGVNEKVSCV
Cannabinoid receptor 1, sequence (P21554 whole entry): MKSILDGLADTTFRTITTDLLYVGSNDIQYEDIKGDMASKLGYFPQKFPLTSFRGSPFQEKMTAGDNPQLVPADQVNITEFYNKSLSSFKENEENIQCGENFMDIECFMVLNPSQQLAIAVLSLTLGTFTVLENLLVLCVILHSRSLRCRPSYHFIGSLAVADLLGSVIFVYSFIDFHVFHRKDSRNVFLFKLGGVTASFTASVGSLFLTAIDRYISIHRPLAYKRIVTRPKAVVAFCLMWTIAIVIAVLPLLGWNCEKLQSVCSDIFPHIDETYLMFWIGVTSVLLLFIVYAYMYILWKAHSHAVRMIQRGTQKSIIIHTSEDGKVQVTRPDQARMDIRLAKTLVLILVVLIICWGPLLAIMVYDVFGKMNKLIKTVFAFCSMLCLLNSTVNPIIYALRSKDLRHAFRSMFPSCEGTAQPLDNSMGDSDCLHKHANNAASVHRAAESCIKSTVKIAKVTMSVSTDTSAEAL
Vasopressin V2 receptor, sequence (P30518 whole entry): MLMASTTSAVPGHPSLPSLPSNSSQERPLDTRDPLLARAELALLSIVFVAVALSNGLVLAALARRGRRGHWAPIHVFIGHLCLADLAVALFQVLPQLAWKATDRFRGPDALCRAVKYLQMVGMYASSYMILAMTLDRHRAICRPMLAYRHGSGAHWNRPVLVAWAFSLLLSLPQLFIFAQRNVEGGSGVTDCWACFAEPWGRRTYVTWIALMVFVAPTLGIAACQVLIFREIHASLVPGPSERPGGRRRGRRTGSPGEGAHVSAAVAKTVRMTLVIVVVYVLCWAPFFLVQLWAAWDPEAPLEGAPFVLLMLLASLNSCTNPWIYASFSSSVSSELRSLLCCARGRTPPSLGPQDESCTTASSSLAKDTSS

As a reminder, the AC50 is the concentration giving half of the maximal activity seen. Read a low AC50 as activity at low concentration. As to `CCOCC(O)COc1ccc(NC(=O)CC[S+](C)C)cc1` (stereo not drawn), the AC50 (at Cannabinoid receptor 1; in [1]) was more than 30 µM in each case.
Turning to `CCC[C@@]1(CCc2ccccc2)CC(O)=C([C@H](CC)c2cccc(NS(=O)(=O)c3ccc(C(F)(F)F)cn3)c2)C(=O)O1`, the AC50 (at Cannabinoid receptor 1; in [1]) was more than 30 µM throughout.
As for `CN1CC2c3ccccc3Oc3ccc(Cl)cc3C2C1` (stereo not drawn) [ASENAPINE], the AC50 (at Cannabinoid receptor 1; in [1]) was more than 30 µM throughout.
Take `Cn1cnc2c(F)c(Nc3ccc(Br)cc3F)c(C(=O)NOCCO)cc21` [BINIMETINIB]: the concentration at half-maximal activity (AC50) (on Cannabinoid receptor 1; in [1]) was more than 30 µM each time.
With `CC(C)C[C@H](NC(=O)[C@H](Cc1ccccc1)NC(=O)c1cnccn1)B(O)O` [BORTEZOMIB], the AC50 (in assay [1]; at Vasopressin V2 receptor; in assay [2]; in assay [3]) was more than 30 µM throughout.
Regarding `O=C(Cc1cccs1)N[C@@H]1C(=O)N2C(C(=O)[O-])=C(C[n+]3ccccc3)CS[C@H]12` [CEPHALORIDINE], the AC50 (at Cannabinoid receptor 1; in assay [1]; on Thromboxane A2 receptor; in assay [3]; in assay [4]; in [5]) was more than 30 µM throughout. Besides, the AC50 in [6] was more than 30 µM.
Turning to `C[C@H](CCC(=O)O)[C@H]1CC[C@H]2[C@@H]3[C@H](O)C[C@@H]4C[C@H](O)CC[C@]4(C)[C@H]3CC[C@]12C` [CHENODIOL], the AC50 (on Cannabinoid receptor 1; in assay [1]) was more than 30 µM each time.
In the case of `O=C(O)[C@H]1/C(=C/CO)O[C@@H]2CC(=O)N21` [CLAVULANIC ACID], the AC50 (on Cannabinoid receptor 1; in assay [1]) was more than 30 µM throughout.
On to `C[C@H](Nc1ncnc2[nH]cnc12)c1cc2cccc(Cl)c2c(=O)n1-c1ccccc1` [DUVELISIB], for which the AC50 (at Cannabinoid receptor 1; in assay [1]; on Thromboxane A2 receptor; in assay [4]; in assay [5]; in assay [6]) was more than 30 µM in each case.
Take `NCC1(CC(=O)O)CCCCC1` [GABAPENTIN]: the AC50 at Cannabinoid receptor 1 is more than 30 µM; on Vasopressin V2 receptor, more than 30 µM; in assay [7], more than 30 µM; in [2], more than 30 µM; at Thromboxane A2 receptor it was more than 30 µM; in assay [3], more than 10 µM. Also, the AC50 in assay [4], in [5] and in [6] was more than 30 µM throughout.
As for `C[C@@H](O)[C@H]1C(=O)N2C(C(=O)O)=C(SCCN=CN)C[C@H]12` [IMIPENEM ANHYDROUS], the AC50 (at Cannabinoid receptor 1; in assay [1]) was more than 300 µM each time.
`CNC1(C)C2CCC(C2)C1(C)C` (stereo not drawn) [MECAMYLAMINE]: the AC50 (in assay [1]; on Vasopressin V2 receptor) was more than 10 µM each time.
For the compound `CS(=O)(=O)Nc1ccc([N+](=O)[O-])cc1Oc1ccccc1` [NIMESULIDE], the AC50 was more than 30 µM on Cannabinoid receptor 1; 26 µM at Vasopressin V2 receptor; more than 30 µM in assay [7]; more than 30 µM in assay [2]; more than 30 µM on Thromboxane A2 receptor; more than 30 µM in [3]. For the same compound, the AC50 in assay [4], in assay [5] and in [6] was more than 30 µM throughout.
As to `CO[C@@H]1[C@@H](OC(N)=O)[C@@H](O)[C@H](Oc2ccc3c(O)c(NC(=O)c4ccc(O)c(CC=C(C)C)c4)c(=O)oc3c2C)OC1(C)C` [NOVOBIOCIN], the concentration at half-maximal activity (AC50) (on Cannabinoid receptor 1; in [1]) was more than 30 µM each time.
Consider `C#CCN(C)Cc1ccccc1` [PARGYLINE], for which the AC50 (at Cannabinoid receptor 1; in [1]; at Thromboxane A2 receptor; in assay [3]; in assay [4]; in assay [5]) was more than 30 µM each time. This compound also displayed an AC50 in assay [6] of more than 30 µM.
In the case of `CCOc1ccccc1OCCN[C@H](C)Cc1ccc(OC)c(S(N)(=O)=O)c1` [TAMSULOSIN], the AC50 in assay [1] is more than 30 µM; on Vasopressin V2 receptor, more than 30 µM; in assay [2], more than 30 µM; in [3], more than 10 µM.
Turning to `C[C@H](Cn1cnc2c(N)ncnc21)OCP(=O)(O)O` [TENOFOVIR ANHYDROUS], the AC50 (in [1]; on Vasopressin V2 receptor; in [2]; in assay [3]) was more than 30 µM each time.
For `COc1cc2c(cc1OC)C1CC(=O)C(CC(C)C)CN1CC2` (stereo not drawn) [TETRABENAZINE], the AC50 (at Cannabinoid receptor 1; in assay [1]) was more than 30 µM in each case.
For `CC(C)(CO)c1cc2cc(NC(=O)C3(c4ccc5c(c4)OC(F)(F)O5)CC3)c(F)cc2n1C[C@@H](O)CO` [TEZACAFTOR], the AC50 (at Cannabinoid receptor 1; in assay [1]) was more than 30 µM each time.
Turning to `CN(C)CCN(Cc1ccccc1)c1ccccn1` [TRIPELENNAMINE], the AC50 was more than 10 µM in assay [1]; more than 10 µM on Vasopressin V2 receptor; more than 30 µM in [7]; more than 30 µM on Thromboxane A2 receptor; more than 10 µM in [3]; more than 30 µM in assay [4]. The AC50 in assay [5] came out at 4.72 µM; in [6], 3.08 µM.
Consider `Cc1c(C)c2c(c(C)c1O)CCC(C)(COc1ccc(CC3SC(=O)NC3=O)cc1)O2` (stereo not drawn) [TROGLITAZONE], for which the half-maximal activity concentration (AC50) at Cannabinoid receptor 1 was more than 30 µM; at Vasopressin V2 receptor it was more than 30 µM; in [7], more than 30 µM; in [2] it was more than 30 µM; at Thromboxane A2 receptor it was 17.6 µM; in assay [3] it was more than 30 µM. The figures for the AC50 in [4], in assay [5] and in [6] were 25.7 µM, 17.8 µM and 10.3 µM, respectively.
Regarding `c1cnc2cc3c(cc2n1)[C@@H]1CNC[C@H]3C1` [VARENICLINE], the AC50 (at Cannabinoid receptor 1; in assay [1]) was more than 30 µM in each case.
For the compound `Nc1c2c(nc3ccccc13)CCCC2O` (stereo not drawn) [VELNACRINE], the half-maximal activity concentration (AC50) (on Cannabinoid receptor 1; in [1]) was more than 30 µM throughout.
